In article PMC12030314, “Biomarker-Driven Pharmacokinetics and Efficacy of Polymyxin B in Critically Ill Patients with XDR-GN Pneumonia” (Pharmaceuticals, 2025):
Read-outs that look alike come from different tables or passages of the source. Where a SMILES comes first, the peptide text is derived from it. Bridges are numbered along the chain shown (N, C = ends). [ ]: non-standard residue; d: D form. The star is where a group is joined. X1 = CC[C@H](C)CCCCC(=O)*; Dab = NCC[C@H](N)C(=O)O

Columns and labels:
[1] = PMB concentration in epithelial lining fluid (BAL, urea dilution method); type: in vivo; settings: human, iv, 50 mg; for Kp at 96 h: epithelial lining fluid / plasma, read-out: ELF/plasma ratio; for level at 96 h: epithelial lining fluid; for Cmax: plasma, patients with BAL samples
Protocol: BAL sample collection was possible for 15 of the patients. If the patients’ respiratory status permitted, one BAL was performed immediately after the seventh dose (on day 4 of treatment). Four 20 mL aliquots of sterile 0.9% normal saline solution were instilled, immediately aspirated, and placed on ice. The aspirate from the first 20 mL instillation was collected and discarded. The aspirates recovered from the second, third, and fourth instillations were pooled.
Blood and BAL samples were centrifuged for 10 min (3000 rpm) and immediately stored at −80 °C until analysis.
PMB concentrations in the samples were quantified by monitoring the total concentrations of polymyxin B1 (PB1), polymyxin B2 (PB2), polymyxin B3 (PB3), and isoleucine polymyxin B1 (I-PB1) via a validated ultraperformance liquid chromatography–tandem mass spectrometry (UPLC-MS/MS) assay. The standard substances, including PB1 (CAS P037), PB2 (CAS P037), PB3 (CAS P040), and I-PB1 (CAS P038), were purchased by TOKU-E Company (>99% pure, Bellingham, WA, USA). ACQUITY UPLC system, Quattro PremierXE triple quadrupole mass spectrometer, electrospray isonizaiton source (ESI), and Masslynx 4.1 data processing software were used in this study (Waters Company, Milford, MA, USA). An Acquity UPLC BEH C18 column (50 mm × 2.1 mm internal diameter, 1.8 μm) purchased from Waters (Milford, MA, USA) was used. The mobile phase comprised a 0.2% formic acid aqueous solution and a 0.2% formic acid acetonitrile solution, and the flow rate was 0.3 mL/min. Mass spectrometric detection was performed in positive electrospray ionization (ESI+) mode with multiple reaction monitoring (MRM). The optimized transitions were set as follows: m/z 602.7→101.0 for PB1 and I-PB1, m/z 595.7→100.9 for PB2 and PB3, and […] for the internal standard norvancomycin. Plasma and BAL supernatant was aliquoted into microcentrifuge tubes and sequentially treated with 20 μL norvancomycin or 200 μL 5% trichloroacetic acid. 1 μL plasma and 2 μL BAL of supernatant were collected separately for the detection of PMB concentrations.
The ELF recovery rate was calculated via the urea dilution method, as reported in previous studies. The concentration of urea was analysed with a commercial kit purchased from Beijing Solarbio Science & Technology Co., Ltd., Beijing, China (BC1535). The concentration of PMB in the ELF (ELF[PMB]) was measured by using urea as an endogenous marker of ELF dilution via the following equation: ELF[PMB] = BAL[PMB] × (blood urea/BAL[Urea]), where BAL[PMB] is the concentration of PMB in BAL and BAL[Urea] is the concentration of urea in BAL.

[2] = cited from earlier work
[3] = Nephrotoxicity during PMB therapy; type: in vivo, human
Protocol: Patient characteristics and laboratory data, including age, sex, weight, medical history, Acute Physiology And Chronic Health Evaluation (APACHE) II score, Sequential Organ Failure Assessment (SOFA) score, estimated creatinine clearance, arterial blood gas analysis, life support interventions, infection site, and type of pathogen, were recorded before PMB administration. The anti-infection therapeutic regimen, course, and incidence of PMB-related adverse reactions were recorded during the study. The creatinine clearance rate (CCr) was calculated with the formula: Ccr = (140 − age) × weight (kg)/[72 × serum creatinine (mg/dL)] for male and Ccr = (140 − age) × weight(kg)/[85 × serum creatinine (mg/dL)] for female. Nephrotoxicity was defined as an increase in serum creatinine of ≥0.3 mg/dL within 48 h or an increase in serum creatinine to ≥1.5 times higher than baseline.

[4] = Asian and American patients, one-compartment model, ref Manchandani et al., 2018 [47]
[5] = Asian and American patients, ref Manchandani et al., 2018 [47]
[6] = Brazilian, Australian critically ill patients, ref Sandri et al., 2013 [48]
[7] = Chinese MDR Gram-negative infected patients, ref Wang et al., 2020 [50]
[8] = Chinese critically ill patients, CRO nosocomial pneumonia, ref Tang et al., 2023 [59]
[9] = Chinese critically ill patients, CRO nosocomial pneumonia, ref Zhang et al., 2023 [60]
[10] = Chinese critically ill patients, ref Pi et al., 2023 [57]
[11] = Chinese patients with CRKP bloodstream infections, ref Yu et al., 2022 [56]
[12] = Chinese patients with various renal functions, 100–200 mg/day, ref Yu et al., 2020 [51]
[13] = ECMO, Russian critically ill patients, ref Surovoy et al., 2022 [53]
[14] = Non-ECMO, Russian critically ill patients, ref Surovoy et al., 2022 [53]
[15] = Renal insufficiency, Thai, American patients, ref Thamlikitkul et al., 2016 [52]

CC[C@H](C)CCCCC(=O)N[C@@H](CCN)C(=O)N[C@H](C(=O)N[C@@H](CCN)C(=O)N[C@H]1CCNC(=O)[C@H]([C@@H](C)O)NC(=O)[C@H](CCN)NC(=O)[C@H](CCN)NC(=O)[C@H](CC(C)C)NC(=O)[C@@H](Cc2ccccc2)NC(=O)[C@H](CCN)NC1=O)[C@@H](C)O [PMB, polymyxin B] (X1-[Dab]T[Dab][Dab][Dab][dF]L[Dab][Dab]T; lactam 4-C)
Kp at 96 h ([1]; treatment failure group, median [IQR]): 0.088
Kp at 96 h ([1]; treatment success group, median [IQR]): 0.17
level at 96 h ([1]; BAL immediately after the seventh dose (day 4), urea dilution method, median and IQR, read-out: ELF concentration): 0.9 µg/mL
level at 96 h ([1]; treatment failure group, median [IQR], read-out: PMB concentration in the ELF): 0.98 µg/mL
level at 96 h ([1]; treatment success group, median [IQR], read-out: PMB concentration in the ELF): 0.84 µg/mL
Cmax ([1]; median and IQR, read-out: plasma Cmax): 7.46 µg/mL
Cmax ([1]; treatment failure group, median [IQR], read-out: Cmax): 11.1 µg/mL
Cmax ([1]; treatment success group, median [IQR], read-out: Cmax): 5.94 µg/mL
V1 ([2]; American acutely ill patients, Gram-negative infection, loading 2.5 to 3 mg/kg, maintenance 2.8 mg/kg/day, one-compartment model, ref Kubin et al., 2018 [46]): 34.4 L
V2 ([2]; American acutely ill patients, Gram-negative infection, two-compartment model, ref Miglis et al., 2018 [45]): 78.20 L
CL ([2]; American critically ill patients with Gram-negative infections): approximately 2.5 L/h
V [2, 4]: 34.3 L
t1/2 [2, 4]: 10.1 h
AUC in patients with nephrotoxicity [2, 5]: 52.3 µg·h/mL
AUC in patients without nephrotoxicity [2, 5]: 45.1 µg·h/mL
AUCss,0–24h ([2]; Brazilian, Australian critically ill patients, 0.45–3.38 mg/kg/day, nonlinear mixed-effects model (PMB1 and PMB2), ref Sandri et al., 2013 [48]): 66.9 µg·h/mL
CL [2, 6]: 0.0276 L/h/kg
Css,avg [2, 6]: 2.79 µg/mL
V1 [2, 6]: 0.0939 L/kg
V2 [2, 6]: 0.330 L/kg
AUCss,0–24h ([2]; Chinese MDR Gram-negative infected patients, all, ref Wang et al., 2021 [49]): 80.14 µg·h/mL
V1 ([2]; Chinese MDR Gram-negative infected patients, 100 to 200 mg/day, one- and two-compartment models, ref Wang et al., 2020 [50]): 6.218 L
AUCss,0–12 h [2, 7]: 43.64 µg·h/mL
CL [2, 7]: 1.786 L/h
V2 [2, 7]: 11.922 L
Css,avg ([2]; Chinese MDR Gram-negative infected patients, ref Wang et al., 2021 [49]): 3.33 µg/mL
AUCss,0–24h [2, 8]: 67.2 µg·h/mL
Cmax,ss [2, 8]: 5.9 µg/mL
Cmin,ss [2, 8]: 1.9 µg/mL
V1 [2, 8]: 12.5 ± 5.67 L
V2 [2, 8]: 29.9 ± 17.3 L
AUCss,0–24h [2, 9]: 67.2 µg·h/mL
Cmax,ss [2, 9]: 5.9 µg/mL
Cmin,ss [2, 9]: 1.9 µg/mL
V1 [2, 9]: 12.5 L
V2 [2, 9]: 29.9 L
CL [2, 10]: 1.67 L/h
Cmax [2, 10]: 4.59 µg/mL
V1 [2, 10]: 7.857 L
V2 [2, 10]: 12.668 L
t1/2 [2, 10]: 5.29 h
AUCss,0–24h [2, 11]: 79.6 µg·h/mL
CL [2, 11]: 1.6 L/h
Css,avg [2, 11]: 3.35 µg/mL
V1 [2, 11]: 38.6 L
V2 [2, 11]: 7.13 L
AUCss,0–24h ([2]; Chinese patients with CRO infections, 1.5–3.0 mg/kg/day, two-compartment model, ref Yang et al., 2022 [55]): 58.5 µg·h/mL
C0 h ([2]; Chinese patients with CRO infections, ref Yang et al., 2022 [55]): 1.24 µg/mL
V1 ([2]; Chinese patients with severe CRO infections, loading 1.73, maintain 2.22 mg/kg/day, two-compartment model, ref Luo et al., 2022 [54]): 11.7 L
AUCss,0–24h ([2]; Chinese patients with severe pneumonia, 50 mg every 12 h (infusion for 1 h), noncompartment model, ref Chen et al., 2021 [58]): 72.7 µg·h/mL
t1/2 ([2]; Chinese patients with severe pneumonia, 50 mg every 12 h, ref Chen et al., 2021 [58]): 8.69 h
CL [2, 12]: 1.59 L/h
Vd [2, 12]: 20.5 L
AUCss,0–12 h ([2]; ECMO, Russian critically ill patients, COVID-19-associated pneumonia, loading 200–300 mg, 2.5–3 mg/kg/day, noncompartmental, ELISA, ref Surovoy et al., 2022 [53]): 43.38 µg·h/mL
AUCss,0–24h [2, 13]: 96.8 µg·h/mL
CSS,avg [2, 13]: 4.03 mg/L
Cmax [2, 13]: 5.96 µg/mL
Cmin [2, 13]: 2.4 µg/mL
Tmax [2, 13]: 5 ± 24 min
Vd [2, 13]: 19.73 L
Cmin ([2]; Following the loading dose, Chinese patients with CRKP bloodstream infections, loading 2.5 mg/kg, 1.25 mg/kg every 12 h, ref Yu et al., 2022 [56]): 1.62 µg/mL
Cmax ([2]; Following the loading dose, Chinese patients with CRKP bloodstream infections, ref Yu et al., 2022 [56]): 5.53 µg/mL
CL ([2]; Non-CRRT, Chinese patients with severe CRO infections, ref Luo et al., 2022 [54]): 1.5 L/h
AUCss,0–12 h [2, 14]: 34.7 µg·h/mL
CL [2, 14]: 1.76 L/h
CSS,avg [2, 14]: 2.9 mg/L
Cmax [2, 14]: 5.08 µg/mL
Cmin [2, 14]: 2.15 µg/mL
Vd [2, 14]: 30.4 L
AUCss,0–24h ([2]; Normal renal function, Chinese patients, ref Wang et al., 2021 [49]): 68.63 µg·h/mL
AUC ([2]; Normal renal function, Thai, American patients, 1.5–2.5 mg/kg/day, ref Thamlikitkul et al., 2016 [52]): 63.5 µg·h/mL
CL ([2]; Normal renal function, Thai, American patients, ref Thamlikitkul et al., 2016 [52]): 2.5 ± 0.4 L/h
AUCss,0–24h ([2]; Renal insufficiency, Chinese patients, ref Wang et al., 2021 [49]): 93.04 µg·h/mL
AUC [2, 15]: 56.0 µg·h/mL
CL [2, 15]: 2.0 L/h
CL ([2]; human, in vivo): 1.95 L/h
Cmax ([2]; human, in vivo): 5.5 µg/mL
CL ([2]; in vivo, 0.4 mg/kg/day): 2.5 ± 1.1 L/h
Css,avg ([2]; in vivo): 1.48 µg/mL
V2 ([2]; in vivo): 17.9 L
Nephrotoxicity ([3]; Total (n = 27), serum creatinine increase ≥0.3 mg/dL within 48 h or ≥1.5 times baseline): 4 (14.81) n (%)
number of patients who suffered from nephrotoxicity ([3]; when PMB medication was administered, 27 patients): four
